Consider 15 molecules from patent US20240409542A1, “NOVEL COMPOUNDS” (Sitryx Therapeutics Limited, priority 2021, published 2024).

Data set [1] deals with recombinant human PKM2 (Homo sapiens (Human), UniProt P14618). The data set can be described thus: Human PKM2 activation assay (Kinase-Glo Plus luminescence). Format: biochemical. Conditions: for pEC50: activation of recombinant human PKM2, 4-parameter logistic fit, read-out: hPKM2 EC50; for Emax: read-out: hPKM2 Emax (%). The procedure: Compound activation of recombinant human PKM2 pyruvate kinase activity was determined by biochemical assay. N-terminal His-tagged hPKM2 was sourced from R&D Systems and its substrates phosphoenolpyruvate (PEP) and ADP from Sigma-Aldrich and 2BScientific Ltd, respectively. The Kinase-Glo® Plus luminescence assay was from Promega. All other reagents were from Sigma-Aldrich. Test Compounds were prepared as 10 mM DMSO stocks and dilution series prepared in DMSO for direct dilution into Assay Buffer comprising 50 mM imidazole, 50 mM KCl, 7 mM MgCl2, 0.01% Tween20, 0.05% BSA (pH 7.2).
Human PKM2 was diluted into Assay Buffer comprising 50 mM imidazole, 50 mM KCl, 7 mM MgCl2, 0.01% Tween20, 0.05% BSA (pH 7.2) to a final concentration of 5 pM. Enzyme-Assay Buffer mix was dispensed into a 384-well shallow-well white-walled plate (PerkinElmer) and Test Compounds added by acoustic dispense (Echo®, Labcyte Inc.).
After 60 minutes' incubation on an orbital shaker (300 rpm, 26° C.), enzyme activity was quantified by the luminescent detection of generated ATP. Kinase-Glo® Plus reagent was added to each well and the plates incubated for a further 15 minutes on an orbital shaker in the dark (300 rpm, 26° C.) before luminescence measurement on a plate reader (PHERAstar® FSX, BMG Labtech).
EC50 and Emax values were determined from 4-parameter logistic fits of compound concentration-response curves.
A general note: Kinase-Glo reads ATP consumption through a luciferase reaction.

The subject of data set [2] is A549 cells. As to the kind of experiment: A549 proliferation assay in low-serine medium (CellTiter-Glo). Format: cell-based. Conditions: Homo sapiens, 72 h, 3 days, low-serine medium (20 μM L-serine). How it is done: The effect of compounds of Formula (I) on A549 cell proliferation in low-serine medium was assessed using a luminescence assay of viable cell number (CellTiter-Glo® 2.0, Promega) duplexed with a fluorescent cytotoxicity assessment (CellTox™ Green, Promega). Cell culture reagents were from ThermoFisher unless specified otherwise. Assay reagents were from Sigma-Aldrich unless specified otherwise. Test Compounds were prepared as 10 mM DMSO stocks and dilution series prepared in DMSO for direct dilution into culture medium.
Cells were passaged every 3-4 days at 80-90% confluence. The cell monolayer was washed twice with room-temperature Ca^2+/Mg-free PBS and 4 ml room-temperature trypsin-EDTA added to the flask. After 5 minutes' incubation (37° C., 5% CO2) to detach cells, trypsin was quenched with 13 ml warmed complete growth medium and the cells harvested and diluted to 2.4×10^4 cells/ml for dispensing into 384-well clear-bottom black-walled plates (600 cells/well).
Following overnight incubation, growth medium was aspirated from each well and the cells washed twice with Assay Medium comprising Basal Medium Eagle supplemented with 3% heat-inactivated dialysed FBS plus 2 mM L-glutamine plus 20 μM L-serine (Sigma-Aldrich). After aspiration of the final wash medium, Assay Medium containing Test Compound was added to each well. DMSO vehicle controls were included on each plate.
Cells were incubated for 3 days in a humidified incubator (37° C., 5% CO2) at which point CellTox™ Green and CellTiter-Glo® reagents were prepared according to the manufacturer's instructions. Triton-X was added to HIGH wells for cytotoxicity determination and the plate incubated for 30 minutes (20° C., ambient humidity and pCO2). CellTox™ Green reagent was added to each well and the plate covered, placed on an orbital shaker @450 rpm for 2 minutes, and incubated in the dark for 15 minutes (20° C., ambient humidity and pCO2). Endpoint fluorescence was measured using a plate reader (PHERAstar® FSX, BMG Labtech).
Following cytotoxicity determination, CellTiter-Glo® reagent was added to each well and the plate placed on an orbital shaker @450 rpm for 2 minutes to lyse cells. Plates were incubated in the dark for 15-30 minutes (20° C., ambient humidity and pCO2) prior to endpoint luminescence measurement (PHERAstar® FSX, BMG Labtech).
Proliferation was calculated by normalizing luminescence signals to LOW controls obtained from a parallel plate processed at the time of Test Compound challenge and HIGH (DMSO vehicle) wells from the compound plate. IC50 values were determined from a 4-parameter logistic fit of compound concentration-response curves.

A short description of data set [3]: Kinetic aqueous solubility. The following applies: PBS pH 7.4, 200 μM (2% DMSO), RT; for Kinetic solubility (Ksol); (μg/ml): 1.5 h; for solubility kinetic at 1.5 h: kinetic from dmso stock, Kinetic solubility (Ksol), (μg/ml).
Method: Phosphate buffered saline (PBS) pH 7.4 was prepared using PBS tablets as per the manufacturer's instructions. Compounds and marker stocks are prepared at 10 mM in DMSO.
Compounds were incubated at 200 μM (2% DMSO) in Millipore—MSS LB PC 10 or Porvair—ref: 36004 plates in the presence of the prepared PBS pH 7.4 solution for 1.5 h, at RT, with gentle shaking. […] The samples were then analysed in a 96 well UV Star analysis plate on a plate reader from 220 nm to 500 nm at 10 nm increments.
The concentration of the samples was calculated against the standard curves.
The target of data set [4] is recombinant human PKLR (Homo sapiens (Human), UniProt P30613). The data set can be described thus: Human PKLR activation assay (Kinase-Glo Plus luminescence). The following applies: for Emax: read-out: hPKLR Emax (%).
Method: Compound activation of recombinant human PKLR pyruvate kinase activity was determined by biochemical assay. N-terminal His-tagged enzyme was sourced from R&D Systems and its substrates phosphoenolpyruvate (PEP) and ADP from Sigma-Aldrich and 2BScientific Ltd, respectively. The Kinase-Glo® Plus luminescence assay was from Promega. All other reagents were from Sigma-Aldrich. Test Compounds were prepared as 10 mM DMSO stocks and dilution series prepared in DMSO for direct dilution into Assay Buffer comprising 50 mM imidazole, 50 mM KCl, 7 mM MgCl2, 0.01% Tween20, 0.05% BSA (pH 7.2).
Human PKLR was diluted into Assay Buffer to a final concentration of 5 pM. Enzyme-Assay Buffer mix was dispensed into 384-well shallow-well white-walled plates and Test Compounds added by acoustic dispense (Echo®, Labcyte Inc).
The mark [5] stands for this setting: phosphate buffered saline (PBS) pH 7.4, pH 7.4, aqueous buffer.

Molecules are shown by their SMILES. pEC50, pIC50: −log10 of the molar value. ≈ marks a conversion by molar mass, not a printed value. Marks after values point to notes of the source that are not given here.

recombinant human PKM2, sequence (P14618 whole entry): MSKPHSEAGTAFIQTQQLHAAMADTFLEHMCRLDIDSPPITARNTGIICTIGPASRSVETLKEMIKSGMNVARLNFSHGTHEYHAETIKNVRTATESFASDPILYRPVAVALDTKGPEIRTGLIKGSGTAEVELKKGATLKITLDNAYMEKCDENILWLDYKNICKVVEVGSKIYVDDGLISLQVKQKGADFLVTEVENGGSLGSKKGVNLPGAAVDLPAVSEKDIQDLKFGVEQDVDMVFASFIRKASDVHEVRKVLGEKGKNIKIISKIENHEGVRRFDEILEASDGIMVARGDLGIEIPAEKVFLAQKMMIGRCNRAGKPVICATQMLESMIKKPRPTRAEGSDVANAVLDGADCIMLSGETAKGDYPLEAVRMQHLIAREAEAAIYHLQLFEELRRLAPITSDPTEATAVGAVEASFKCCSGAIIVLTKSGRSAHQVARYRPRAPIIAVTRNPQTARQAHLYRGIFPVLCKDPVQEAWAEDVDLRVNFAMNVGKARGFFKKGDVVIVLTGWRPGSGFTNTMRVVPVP
recombinant human PKLR, sequence (P30613 whole entry): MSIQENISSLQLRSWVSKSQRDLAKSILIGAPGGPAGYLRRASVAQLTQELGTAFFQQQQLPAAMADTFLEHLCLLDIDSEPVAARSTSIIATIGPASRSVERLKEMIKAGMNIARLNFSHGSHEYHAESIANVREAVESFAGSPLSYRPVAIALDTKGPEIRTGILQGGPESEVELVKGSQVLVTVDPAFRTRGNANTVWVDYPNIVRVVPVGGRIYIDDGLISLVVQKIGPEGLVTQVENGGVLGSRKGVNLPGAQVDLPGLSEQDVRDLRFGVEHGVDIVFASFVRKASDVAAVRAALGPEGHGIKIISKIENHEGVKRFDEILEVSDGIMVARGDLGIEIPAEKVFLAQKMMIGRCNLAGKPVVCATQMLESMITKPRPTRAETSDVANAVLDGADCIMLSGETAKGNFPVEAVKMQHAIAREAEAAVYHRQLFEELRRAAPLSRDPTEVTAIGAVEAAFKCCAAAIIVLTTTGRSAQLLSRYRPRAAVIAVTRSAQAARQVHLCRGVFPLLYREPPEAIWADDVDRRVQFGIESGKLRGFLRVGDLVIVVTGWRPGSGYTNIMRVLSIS

Consider `COc1cc(F)c(Cn2ncc3c4c(n(C)c3c2=O)CN(S(C)(=O)=O)CC4)c(F)c1` [Example 6, 3-(2,6-difluoro-4-methoxybenzyl)-5-methyl-7-(methylsulfonyl)-3,5,6,7,8,9-hexahydro-4H-pyrido[4′,3′:4,5]pyrrolo[2,3-d]pyridazin-4-one], for which, in data set [1], the pEC50 (commonly the EC50 on a negative log10 scale, so that one unit is a factor of ten) was 6.50 and the Emax (in general, the size of the effect at its maximum, as opposed to the concentration needed) amounted to 85.3%. Moreover, in data set [2], the pIC50 (usually the negative decadic logarithm of the IC50, by convention in mol/L) was 7.77. In addition, the “Kinetic solubility (Ksol); (μg/ml)” value in data set [3] is recorded as 0.87* μg/ml. The kinetic solubility (as a rule, solubility judged after dilution from a stock solution rather than from solid) at 1.5 h in data set [3] (setting [5]) came out at 0.64 µg/mL (≈ 1.46 µM). Further, in data set [4], the pEC50 is 7.22 to 7.36 and the maximal effect (Emax) was < 90%.

`Cn1c2c(c3cnn(Cc4cccc(N)c4)c(=O)c31)CCN(S(=O)(=O)C1CC1)C2` [Example 9, 3-(3-aminobenzyl)-7-(cyclopropylsulfonyl)-5-methyl-3,5,6,7,8,9-hexahydro-4H-pyrido[4′,3′:4,5]pyrrolo[2,3-d]pyridazin-4-one]: in data set [1], the pEC50 was 5.75 and the Emax was 47.3%. The molecule further had a pIC50 in data set [2] of 7.59. In addition, the kinetic solubility at 1.5 h in data set [3] (setting [5]) was determined as 43.1 µg/mL (≈ 104 µM). In addition, in data set [4], the pEC50 was < 6.49 and the Emax is < 90%.

For `CC(O)c1cccc(Cn2ncc3c4c(n(C)c3c2=O)CN(S(C)(=O)=O)CC4)c1` (stereo not shown) [Example 3, 3-(3-(1-hydroxyethyl)benzyl)-5-methyl-7-(methylsulfonyl)-3,5,6,7,8,9-hexahydro-4H-pyrido[4′,3′:4,5]pyrrolo[2,3-d]pyridazin-4-one], the pEC50 is 6.52 in data set [1] and 6.49 to 7.22 in data set [4]. The Emax was 81.4% in data set [1] and 100 to 117% in data set [4]. Further, the negative logarithm of the IC50 (pIC50) in data set [2] was 7.98. Moreover, the “Kinetic solubility (Ksol); (μg/ml)” value in data set [3] is given as 17.91* μg/ml. In addition, the solubility (kinetic) at 1.5 h in data set [3] (setting [5]) is 19 µg/mL (≈ 45.6 µM).

For `CC(=O)N1CCc2c(n(C)c3c(=O)n(Cc4cccc(N)c4)ncc23)C1` [Example 8, 7-acetyl-3-(3-aminobenzyl)-5-methyl-3,5,6,7,8,9-hexahydro-4H-pyrido [4′,3′:4,5]pyrrolo[2,3-d]pyridazin-4-one], in data set [1], the negative-log EC50 (pEC50) was 5.76 and the maximum response (Emax) is 83.1%. In addition, in data set [2], the pIC50 is 7.60. Also, the kinetic solubility at 1.5 h in data set [3] (setting [5]) was > 70.3 µg/mL. Also, in data set [4], the pEC50 is < 6.49 and the Emax is < 90%.

As to `Cn1c2c(c3cnn(Cc4c[nH]c5cnccc45)c(=O)c31)CCN(S(C)(=O)=O)C2` [Example 36, 3-((1H-pyrrolo[2,3-c]pyridin-3-yl)methyl)-5-methyl-7-(methylsulfonyl)-3,5,6,7,8,9-hexahydro-4H-pyrido[4′,3′:4,5]pyrrolo[2,3-d]pyridazin-4-one], in data set [1], the pEC50 was 7.15 and the maximal response (Emax) worked out at 100%. Further, the solubility (kinetic) at 1.5 h in data set [3] (setting [5]) was > 82.5 µg/mL. In data set [4], the negative logarithm of the EC50 (pEC50) is 7.22 to 7.36 and the Emax was 90 to 100%.

Take `Cn1c2c(c3cnn(Cc4cc[nH]n4)c(=O)c31)CCN(S(C)(=O)=O)C2` [Example 4, 3-((1H-pyrazol-3-yl)methyl)-5-methyl-7-(methylsulfonyl)-3,5,6,7,8,9-hexahydro-4H-pyrido[4′,3′:4,5]pyrrolo[2,3-d]pyridazin-4-one]: the pEC50 in data set [1] is 5.94; in data set [4] it was 6.49 to 7.22. The Emax in data set [1] is 89.8%; in data set [4] it was 100 to 117%. This molecule also registered a kinetic solubility at 1.5 h in data set [3] (setting [5]) of 42 µg/mL (≈ 116 µM).

In the case of `Cn1c2c(c3cnn(Cc4ccsc4CO)c(=O)c31)CCN(S(C)(=O)=O)C2` [Example 13, 3-((2-(hydroxymethyl)thiophen-3-yl)methyl)-5-methyl-7-(methylsulfonyl)-3,5,6,7,8,9-hexahydro-4H-pyrido[4′,3′:4,5]pyrrolo[2,3-d]pyridazin-4-one], in data set [1], the pEC50 was 6.15 and the Emax was 88.5%. Besides, in data set [3] (setting [5]), the solubility (kinetic) at 1.5 h stood at 38 µg/mL (≈ 92.9 µM).

Take `Cn1c2c(c3cnn(Cc4n[nH]c5ccccc45)c(=O)c31)CCN(S(C)(=O)=O)C2` [Example 20, 3-((1H-indazol-3-yl)methyl)-5-methyl-7-(methylsulfonyl)-3,5,6,7,8,9-hexahydro-4H-pyrido[4′,3′:4,5]pyrrolo[2,3-d]pyridazin-4-one]: in data set [1], the pEC50 is 6.57 and the Emax was determined as 111%. The molecule also yielded a solubility (kinetic) at 1.5 h in data set [3] (setting [5]) of 8.43 µg/mL (≈ 20.4 µM).

Turning to `Cn1c2c(c3cnn(Cc4cccc(C(C)(C)O)c4)c(=O)c31)CCN(S(C)(=O)=O)C2` [Example 33, 3-(3-(2-hydroxypropan-2-yl)benzyl)-5-methyl-7-(methylsulfonyl)-3,5,6,7,8,9-hexahydro-4H-pyrido[4′,3′:4,5]pyrrolo[2,3-d]pyridazin-4-one], in data set [1], the Emax was determined as 96.5%. Further, in data set [3] (setting [5]), the kinetic solubility at 1.5 h came to 19.8 µg/mL (≈ 46 µM).

`Cn1c2c(c3cnn(Cc4c[nH]c5ccccc45)c(=O)c31)CCN(S(C)(=O)=O)C2` [Example 15, 3-((1H-indol-3-yl)methyl)-5-methyl-7-(methylsulfonyl)-3,5,6,7,8,9-hexahydro-4H-pyrido[4′,3′:4,5]pyrrolo[2,3-d]pyridazin-4-one]: in data set [1], the pEC50 was 7.00 and the Emax turned out to be 99.9%. For the same molecule, in data set [3] (setting [5]), the kinetic solubility at 1.5 h came to 2.49 µg/mL (≈ 6.05 µM).

Consider `Cn1c2c(c3cnn(Cc4c[nH]c5ncccc45)c(=O)c31)CCN(S(C)(=O)=O)C2` [Example 37, 3-((1H-pyrrolo[2,3-b]pyridin-3-yl)methyl)-5-methyl-7-(methylsulfonyl)-3,5,6,7,8,9-hexahydro-4H-pyrido[4′,3′:4,5]pyrrolo[2,3-d]pyridazin-4-one], for which, in data set [1], the pEC50 was 6.68 and the Emax amounted to 106%. For the same molecule, the solubility (kinetic) at 1.5 h in data set [3] (setting [5]) came to 59.3 µg/mL (≈ 144 µM).

Regarding `Cn1c2cc([S+](C)[O-])sc2c2cnn(Cc3cccc(N)c3)c(=O)c21` (stereo not shown) [TEPP-46, reference compound], in data set [1], the Emax turned out to be 113%. For the same molecule, the solubility (kinetic) at 1.5 h in data set [3] (setting [5]) is 0.15 µg/mL (≈ 0.403 µM).

Regarding `COCCS(=O)(=O)N1CCc2c(n(C)c3c(=O)n(Cc4c[nH]c5cnccc45)ncc23)C1` [Example 29, 3-((1H-pyrrolo[2,3-c]pyridin-3-yl)methyl)-7-((2-methoxyethyl)sulfonyl)-5-methyl-6,7,8,9-tetrahydro-3H-pyrido[4′,3′:4,5]pyrrolo[2,3-d]pyridazin-4(5H)-one], in data set [1], the pEC50 is 6.55 and the Emax was determined as 89%. The same molecule returned a solubility (kinetic) at 1.5 h in data set [3] (phosphate buffered saline, pH 7.4, aqueous buffer) of 37.5 µg/mL (≈ 82 µM).

Regarding `Cn1c2c(c3cnn(Cc4ccc5cc[nH]c5n4)c(=O)c31)CCN(S(C)(=O)=O)C2` [Example 25, 3-((1H-pyrrolo[2,3-b]pyridin-6-yl)methyl)-5-methyl-7-(methylsulfonyl)-3,5,6,7,8,9-hexahydro-4H-pyrido[4′,3′:4,5]pyrrolo[2,3-d]pyridazin-4-one], in data set [1], the pEC50 was 6.47 and the Emax stood at 99.5%. The molecule further gave a kinetic solubility at 1.5 h in data set [3] (setting [5]) of 3.94 µg/mL (≈ 9.55 µM).

Turning to `Cn1c2c(c3cnn(Cc4cccc(S(C)(=O)=O)c4)c(=O)c31)CCN(S(C)(=O)=O)C2` [Example 31, 5-methyl-7-(methylsulfonyl)-3-(3-(methylsulfonyl)benzyl)-3,5,6,7,8,9-hexahydro-4H-pyrido[4′,3′:4,5]pyrrolo[2,3-d]pyridazin-4-one], in data set [1], the pEC50 was 6.37 and the Emax was determined as 75.3%. The solubility (kinetic) at 1.5 h in data set [3] (setting [5]) amounted to 18.8 µg/mL (≈ 41.8 µM).
